Test results from publication PMC8568133, “Evaluation of bisphenylthiazoles as a promising class for combating multidrug-resistant fungal infections” (PLoS ONE, 2021).
Values after ≈ are worked out from the molar mass of the structure shown. Where two headings read alike, the source gives them in different places.

Assays:
[1] = tested on: Candida albicans; experiment: Antifungal broth microdilution MIC (50% growth inhibition) and MFC; assay type: cell-based; details: Candida albicans; for MIC: read-out: MIC
Experimental: (§1) Serial dilutions (from 128 μg/mL to 0.06 μg/mL) of the tested compounds and control drugs (fluconazole, itraconazole and amphotericin) (in triplicates), were screened against clinical isolates of Candida albicans, Candida auris, Candida glabrata, Candida parapsilosis, Candida tropicalis, Candida krusei, Cryptococcus neoformans, Cryptococcus gattii and Aspergillus fumigatus species using the broth microdilution method according to the Clinical and Laboratory Standards Institute guidelines. MICs were determined as the lowest concentration of the compounds that inhibited the fungal growth by 50% after incubation at 35 °C for 24 h (for Candida and Aspergillus), or 48 h (for Cryptococcus). The minimum fungicidal concentration (MFC) of these compounds was tested by plating 4 μL from wells with no growth onto YPD agar plates. The plates were incubated at 37 °C for 24 hours before recording the MFC, which was categorized as the lowest concentration that reduced fungal growth by 99.9% [45]. The experiment was repeated three independent times.

[2] = tested on: Candida auris; experiment: as above; assay type: cell-based
Experimental: as §1

[3] = tested on: Candida krusei; experiment: as above; assay type: cell-based; details: Pichia kudriavzevii; for MIC: read-out: MIC
Experimental: as §1

[4] = tested on: Candida tropicalis; experiment: as above; assay type: cell-based; details: Candida tropicalis, ATCC1369, C. tropicalis ATCC 1369
Experimental: as §1

[5] = tested on: Lactobacillus casei ATCC-334; experiment: Broth microdilution MIC against normal human microbiota; assay type: cell-based; details: Lacticaseibacillus casei, ATCC334
Experimental: (§2) Broth microdilution was utilized to determine the activity of bisphenylthiazoles against the human gut microflora as described elsewhere. A bacterial solution equivalent to 0.5 McFarland standards was prepared and diluted in MRS broth to achieve a bacterial concentration of approximately 5 x 10^5 CFU/mL. Then, compounds/control antifungals (in triplicates), were added to the plates and serially diluted with media containing bacteria. The plates were incubated for 48 hours at 37 °C before recording the MIC values. The experiment was repeated three independent times.

[6] = tested on: Lactobacillus crispatus HM-370; experiment: as above; assay type: cell-based; details: Lactobacillus crispatus, HM370
Experimental: as §2

[7] = tested on: Lactobacillus gasseri HM-400; experiment: as above; assay type: cell-based; details: Lactobacillus gasseri, HM400
Experimental: as §2

[8] = tested on: Cryptococcus gattii; experiment: Antifungal broth microdilution MIC (50% growth inhibition, 48 h); assay type: cell-based; details: Cryptococcus gattii, read-out: MIC
Experimental: as §1

[9] = tested on: Cryptococcus neoformans; experiment: as above; assay type: cell-based; details: Cryptococcus neoformans, read-out: MIC
Experimental: as §1

[10] = tested on: Candida parapsilosis; experiment: Antifungal broth microdilution MIC (50% growth inhibition); assay type: cell-based; details: Lodderomyces parapsilosis, read-out: MIC
Experimental: as §1

[11] = tested on: Candida strains; experiment: Minimum fungicidal concentration, summary over Candida strains; assay type: cell-based; details: strains of Table 6
Experimental: as §1

[12] = tested on: Candida auris; experiment: Checkerboard assay of compound 17 with standard antifungals; assay type: cell-based; details: for Interpretation of interaction: antifungal combined with compound 17; for MIC Combined, Antifungal: antifungal in combination with compound 17; for MIC: Candidozyma auris, checkerboard, agent alone
Experimental: To evaluate the interactions between bisphenylthiazoles and the standard antifungal agents (fluconazole, amphotericin B, 5-fluorocytosine and caspofungin) against 2 C. auris clinical isolates, a standard checkerboard assay was utilized as described in previous studies. The fractional inhibitory concentration index (FICI) was calculated for each interaction. Interactions where the FICI was ≤0.5 were categorized as synergistic (SYN). FICI values of >0.5–1.25 were categorized as additive (ADD). FICI values of >1.25–4 were categorized as indifferent, and FICI values of > 4 were categorized as antagonistic. The experiment was repeated three independent times.

[13] = tested on: MRSA USA300; parameters: method as in PMID 30247876; details: previous observations; cited from earlier work
[14] = parameters: method as in PMID 30247876; details: reactive metabolite formation, previous observations; cited from earlier work
[15] = ATCC10231, C. albicans ATCC 10231
[16] = Candida auris 381 (azole-sensitive)
[17] = Candida auris 385 (azole-resistant)

Structure (SMILES): OC(Cn1cncn1)(Cn1cncn1)c1ccc(F)cc1F [Fluconazole, reference compound]
- MFC [1, 15]: > 128 µg/mL
- MIC [1, 15]: 1 µg/mL (≈ 3.27 µM)
- MIC ([1]; C. albicans NR-29448 (fluconazole-resistant)): > 128 µg/mL
- MIC ([1]; C. albicans SS5314 (wild-type)): 1 µg/mL (≈ 3.27 µM)
- MFC ([1]; C. albicans NR-29448): > 128 µg/mL
- MIC ([2]; C. auris 383): >128 µg/mL
- MIC ([2]; C. auris 384): >128 µg/mL
- MIC ([2]; C. auris 385): >128 µg/mL
- MIC ([2]; C. auris 386): >128 µg/mL
- MIC ([2]; C. auris 389): >128 µg/mL
- MIC ([2]; C. auris 390): >128 µg/mL
- MFC ([2]; Candida auris 390): >128 µg/mL
- MIC ([2]; Candidozyma auris, C. auris 381, read-out: MIC): 1 µg/mL (≈ 3.27 µM)
- MIC ([2]; Candidozyma auris, C. auris 382, read-out: MIC): 8 µg/mL (≈ 26.1 µM)
- MIC ([2]; Candidozyma auris, C. auris 387, read-out: MIC): 8 µg/mL (≈ 26.1 µM)
- MFC ([2]; Candidozyma auris, Candida auris 389, read-out: MFC): > 128 µg/mL
- MIC ([3]; ATCC34135, C. krusei ATCC 34135): 16 µg/mL (≈ 52.2 µM)
- MFC ([3]; C. krusei CAB 396420): > 128 µg/mL
- MIC ([3]; C. krusei CAB 396420): 16 µg/mL (≈ 52.2 µM)
- MFC [4]: > 128 µg/mL
- MIC ([4]; read-out: MIC): 0.5 µg/mL (≈ 1.63 µM)
- MIC [5]: > 128 µg/mL
- MIC [6]: > 128 µg/mL
- MIC [7]: > 128 µg/mL
- MIC ([8]; C. gattii NR 43209): 4 µg/mL (≈ 13.1 µM)
- MIC ([8]; C. gattii NR 43210): 4 µg/mL (≈ 13.1 µM)
- MIC ([9]; C. neoformans NR 41298): 2 µg/mL (≈ 6.53 µM)
- MIC ([9]; C. neoformans NR 41300): 1 µg/mL (≈ 3.27 µM)
- MIC ([9]; C. neoformans NR 48770): 2 µg/mL (≈ 6.53 µM)
- MIC ([10]; ATCC22019, C. parapsilosis ATCC 22019): 1 µg/mL (≈ 3.27 µM)
- MIC ([10]; C. parapsilosis CAB 502638): 0.5 µg/mL (≈ 1.63 µM)
- fungistatic or fungicidal activity [11]: fungistatic
- Interpretation of interaction [12, 16]: ADD (FICI values of >0.5–1.25 were categorized as additive (ADD))
- MIC Combined, Antifungal [12, 16]: 1 µg/mL
- Interpretation of interaction [12, 17]: ADD (FICI values of >0.5–1.25 were categorized as additive (ADD))
- MIC Combined, Antifungal [12, 17]: 0.25 µg/mL
- MIC [12, 16]: 1 µg/mL
- MIC [12, 17]: > 128 µg/mL

Structure (SMILES): Cc1nc(-c2ccc(-c3ccccc3)cc2)sc1-c1nnc(NN)o1 [Compound 1]
- MIC (MRSA) [13]: 3 µg/mL (≈ 8.59 µM)
- GSH trap [14]: +ve
